The experiment concerns M. tuberculosis H37Rv growth inhibition. In words: Mycobacterium tuberculosis H37Rv growth inhibition, putative kinase inhibitor library, confirmatory dose response (AID 2842).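 Further: bacteria incubated one week before Alamar blue readout.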

SMILES strings stand for the structures. In brackets after ≈: the same amount, converted by molar mass.

`O=C(Nc1nnc(-c2ccc3c(c2)OCCO3)o1)c1ccccc1Oc1ccccc1`: the IC90 was 3.77 µg/mL (≈ 9.08 µM).

In the case of `CCOC(=O)Cn1c(=NC(=O)c2ccc([N+](=O)[O-])s2)sc2cc(S(C)(=O)=O)ccc21`, the concentration for an effect of 90% (IC90) is 21.8 µg/mL (≈ 46.5 µM).

For `O=C(Nc1nnc(-c2ccncc2)o1)c1cc(Cl)ccc1Cl`, the IC90 was 6.58 µg/mL (≈ 19.6 µM).

For `Cc1cc(NC2CCCCC2)n2ncc(-c3ccccc3)c2n1`, the concentration for an effect of 90% (IC90) is 10.6 µg/mL (≈ 34.5 µM).

Take `COc1cc(C(=O)Nc2nnc(-c3ccc(C)cc3C)o2)cc(OC)c1OC`: the IC90 is 2.53 µg/mL (≈ 6.6 µM).

`COc1cccc(-c2csc(NC(=O)C3CCCCC3)n2)c1`: the IC90 is 19.8 µg/mL (≈ 62.6 µM).

Turning to `CCCCOc1ccc(C(=O)Nc2nnc(-c3ccncc3)o2)cc1`, the 90% effect concentration (IC90) is 3.42 µg/mL (≈ 10.1 µM).

`Cc1cc(Nc2ccc(C)c(C)c2)n2ncc(-c3ccccc3)c2n1`: the IC90 is 3.44 µg/mL (≈ 10.5 µM).

Take `CCCCC(=O)Nc1nnc(-c2ccc3c(c2)OCCO3)o1`: the concentration for an effect of 90% (IC90) was 9.06 µg/mL (≈ 29.9 µM).

For the compound `CC1(C)CC(=O)c2sc(NC(=O)c3ccc(NS(=O)(=O)c4ccc(Cl)cc4)cc3)nc2C1`, the concentration for an effect of 90% (IC90) is 15.5 µg/mL (≈ 31.7 µM).

In the case of `CSc1nc2ccc3nc(NC(=O)c4cc5ccccc5oc4=O)sc3c2s1`, the IC90 was 26.1 µg/mL (≈ 61.3 µM).

As for `CCOc1ccc(NCCCn2c(C)cn3c4c(=O)[nH]c(=O)n(C)c4nc23)cc1`, the IC90 is 20.5 µg/mL (≈ 51.7 µM).

Take `CCOC(=O)N1CCc2c(sc(NC(=O)C3COc4ccccc4O3)c2C(N)=O)C1` (stereo unspecified): the concentration for an effect of 90% (IC90) was 8.19 µg/mL (≈ 19 µM).

In the case of `O=C1CN(C(=O)c2cccc(F)c2)C(c2ccc(F)cc2)c2cc(Br)ccc2N1` (stereo unspecified), the 90% effect concentration (IC90) was 32.1 µg/mL (≈ 70.2 µM).

`O=C(CCCN1C(=O)/C(=C/c2ccco2)SC1=S)Nc1ccccc1`: the IC90 is 2.96 µg/mL (≈ 7.95 µM).

With `C=CCOC(=O)COc1ccc2cc(-c3ccccc3)c(=O)oc2c1`, the 90% effect concentration (IC90) was 1.22 µg/mL (≈ 3.63 µM).

As to `COc1cccc(OCCN2CCN(c3cc(C)nc4c(-c5ccccc5)cnn34)CC2)c1`, the concentration for an effect of 90% (IC90) is 12 µg/mL (≈ 27 µM).

`COc1cccc(-c2nnc(NC(=O)c3ccc(Cl)s3)o2)c1`: the IC90 is under 0.2 µg/mL.

Take `CCOc1cccc2sc(N3CCc4ccccc4C3)nc12`: the IC90 was 15.3 µg/mL (≈ 49.2 µM).

For `Cc1cccc2sc(NNC(=O)c3ccc(N(C)C)cc3)nc12`, the IC90 was 28.6 µg/mL (≈ 87.6 µM).

Consider `O=C(Nc1nnc(-c2ccc(Br)cc2)o1)C1COc2ccccc2O1` (stereo unspecified), for which the IC90 was 7.27 µg/mL (≈ 18.1 µM).

With `CCCCCOc1ccc(C(=O)Nc2nnc(-c3ccco3)o2)cc1`, the concentration for an effect of 90% (IC90) is 8.78 µg/mL (≈ 25.7 µM).

Regarding `COc1cc2ccccc2cc1C(=O)Nc1nccs1`, the IC90 was 30.2 µg/mL (≈ 106 µM).

In the case of `CC1CCCN(c2nc3c(c(=O)[nH]c(=O)n3C)n2CCCSc2nc3ccccc3s2)C1` (stereo unspecified), the 90% effect concentration (IC90) is 16.6 µg/mL (≈ 35.3 µM).

Regarding `COc1cc(C(=O)Nc2nnc(-c3ccc4c(c3)CCCC4)o2)cc(OC)c1OC`, the IC90 is 44.2 µg/mL (≈ 108 µM).

As for `OCc1nc2ccccc2n1CCCCOc1ccc(Cl)cc1`, the 90% effect concentration (IC90) is 7.39 µg/mL (≈ 22.3 µM).

Take `O=C(NCCSc1c[nH]c2ccccc12)c1cc2ccccc2oc1=O`: the IC90 is 1.58 µg/mL (≈ 4.34 µM).

On to `O=C(Nc1nnc(-c2cc(Cl)ccc2Cl)o1)c1ccc(Cl)s1`, for which the IC90 is 1.86 µg/mL (≈ 4.96 µM).

Take `O=[n+]1c2ccccc2n([O-])c2ccccc21`: the 90% effect concentration (IC90) was 3.52 µg/mL (≈ 16.6 µM).

Consider `O=C(Nc1ccc(F)cc1)Nc1nc(C(=O)N2CCN(c3ccc(F)cc3)CC2)cs1`, for which the 90% effect concentration (IC90) was 7.09 µg/mL (≈ 16 µM).

With `N#Cc1ccccc1NC(=O)C(=O)NCCSc1ncc(-c2ccccc2)[nH]1`, the concentration for an effect of 90% (IC90) was 4.48 µg/mL (≈ 11.4 µM).

For `Cn1c(=O)c2c(nc(SCC(=O)c3ccccc3)n2Cc2ccc(F)cc2)n(C)c1=O`, the 90% effect concentration (IC90) was 31.8 µg/mL (≈ 72.4 µM).

Regarding `Cc1ccc(C)c(-c2nnc(NC(=O)c3ccccc3S(C)(=O)=O)o2)c1`, the IC90 was 19.3 µg/mL (≈ 52 µM).

Consider `COc1ccc(-c2nnc(SCC(=O)Nc3cc(C)on3)o2)cc1`, for which the IC90 is 6.72 µg/mL (≈ 19.4 µM).

Regarding `O=C(Nc1nnc(-c2cc(Cl)ccc2Cl)o1)c1ccc(S(=O)(=O)N2CCCC2)cc1`, the IC90 was 25.6 µg/mL (≈ 54.8 µM).

Take `COc1ccc(C)c2sc(N(CCCn3ccnc3)C(=O)Cc3ccccc3)nc12`: the IC90 was 21.1 µg/mL (≈ 50.3 µM).

For `Cc1ccc(C(=O)Nc2nnc(-c3ccncc3)o2)cc1`, the concentration for an effect of 90% (IC90) was 13.4 µg/mL (≈ 47.7 µM).

In the case of `Cc1ccc2sc(N(CCCn3ccnc3)C(=O)c3ccco3)nc2c1C`, the concentration for an effect of 90% (IC90) was 0.58 µg/mL (≈ 1.52 µM).

As for `COc1cccc(C(=O)Nc2nc(-c3cccs3)cs2)c1`, the IC90 is 19.5 µg/mL (≈ 61.5 µM).

`Cc1ccc(C)c(C(=O)Nc2nnc(-c3ccc(C)c(C)c3)o2)c1`: the IC90 is 2.66 µg/mL (≈ 8.28 µM).

For the compound `OCc1nc2ccccc2n1CC(O)COc1ccc(Br)cc1` (stereo unspecified), the IC90 was 10.2 µg/mL (≈ 27 µM).

For `O=C(Nc1nnc(-c2cc(Cl)ccc2Cl)o1)c1c(F)cccc1F`, the 90% effect concentration (IC90) is 3.48 µg/mL (≈ 9.4 µM).

As for `COc1ccc(-c2nnc(NC(=O)c3cccc(C)c3)o2)cc1`, the IC90 is 87.7 µg/mL (≈ 283 µM).

As for `O=C(Nc1nnc(-c2ccc3c(c2)OCCO3)o1)c1ccccc1Br`, the concentration for an effect of 90% (IC90) is 12.6 µg/mL (≈ 31.4 µM).

With `COc1ccccc1-c1nc(C(N)=O)c2[nH]c(=O)n(-c3ccc(C(C)(C)C)cc3)c2n1`, the concentration for an effect of 90% (IC90) is 9.91 µg/mL (≈ 23.7 µM).

Turning to `O=C(CCSc1ccccc1)Nc1nc(-c2ccccn2)cs1`, the IC90 is 21.8 µg/mL (≈ 63.9 µM).

On to `COc1cccc2sc(Nc3nc4c(s3)C(=O)CC(C)(C)C4)nc12`, for which the IC90 is 7.52 µg/mL (≈ 20.9 µM).

`Cc1c(Cl)ccc2sc(N(CCCn3ccnc3)C(=O)c3ccco3)nc12`: the IC90 was 0.23 µg/mL (≈ 0.574 µM).

For `CCCCC(=O)Nc1nnc(-c2ccc(Cl)s2)o1`, the concentration for an effect of 90% (IC90) is 3.23 µg/mL (≈ 11.3 µM).

As for `O=C(CSc1ncnc2c1nnn2Cc1ccc(F)cc1)N1CCOCC1`, the concentration for an effect of 90% (IC90) was 19.8 µg/mL (≈ 50.9 µM).

On to `Cc1ccc2nc(NNC(=O)c3cc4ccccc4oc3=O)sc2c1`, for which the IC90 was 1.75 µg/mL (≈ 4.98 µM).

`Cc1nnc2ccc(-c3cccc(NC(=O)COc4ccc(Cl)cc4)c3)nn12`: the IC90 is 23.5 µg/mL (≈ 59.6 µM).

Regarding `COc1ccc(-c2nnc3c4cc5c(cc4n(Cc4ccc(C)cc4)cc2-3)OCCO5)cc1`, the concentration for an effect of 90% (IC90) is 5.09 µg/mL (≈ 11.6 µM).

`O=C(Nc1nnc(-c2cc(Cl)ccc2Cl)o1)C1=COCCO1`: the 90% effect concentration (IC90) was 25.7 µg/mL (≈ 75.2 µM).

`CN(C)S(=O)(=O)c1ccc(C(=O)Nc2nnc(-c3cc(Cl)ccc3Cl)o2)cc1`: the IC90 is 3.89 µg/mL (≈ 8.81 µM).

As to `O=C(Nc1nnc(-c2ccccc2Cl)o1)c1cccc(Oc2ccccc2)c1`, the IC90 is 0.86 µg/mL (≈ 2.19 µM).

With `O=C(OCc1ccco1)c1cc2cc(Br)ccc2oc1=O`, the IC90 was 16.3 µg/mL (≈ 46.7 µM).

In the case of `CCc1cccc2sc(N(CCCn3ccnc3)C(=O)c3cccs3)nc12`, the concentration for an effect of 90% (IC90) was 0.34 µg/mL (≈ 0.857 µM).

For the compound `COc1cc2ccccc2cc1C(=O)Nc1nnc(-c2cc(Cl)ccc2Cl)o1`, the 90% effect concentration (IC90) is 27.6 µg/mL (≈ 66.5 µM).

For `COc1ccc(Nc2c3c4c(cccc4[nH]c2=O)C(=O)c2ccccc2-3)cc1`, the IC90 is 12.4 µg/mL (≈ 33.7 µM).

Consider `COc1ccc(C(=O)Oc2cccc(Nc3ncnc4ccccc34)c2)cc1`, for which the IC90 is 15.1 µg/mL (≈ 40.5 µM).

With `O=C(Nc1ccc(I)cc1)c1ccc([N+](=O)[O-])s1`, the IC90 is under 0.2 µg/mL.

In the case of `O=C(Nc1cccc(C(F)(F)F)c1)NC1CC(=O)N(c2ccc(F)cc2)C1` (stereo unspecified), the IC90 was 13.2 µg/mL (≈ 34.6 µM).

In the case of `Cc1ccc(-c2nnc(NC(=O)c3ccccc3F)o2)c(C)c1`, the 90% effect concentration (IC90) was 1.31 µg/mL (≈ 4.21 µM).

Take `O=C1CN(C(=O)c2cccc3ccccc23)C(c2ccc(F)cc2)c2cc(Br)ccc2N1` (stereo unspecified): the concentration for an effect of 90% (IC90) was 10.2 µg/mL (≈ 20.8 µM).

Take `COc1ccccc1Cn1cc2c(-c3ccc(C)cc3)nnc-2c2cc(C)ccc21`: the IC90 was 3.48 µg/mL (≈ 8.84 µM).

Turning to `O=C(Nc1nnc(-c2ccc(Br)cc2)o1)c1ccc2c(c1)CCCC2`, the IC90 was 16.8 µg/mL (≈ 42.1 µM).

Take `O=C(CSc1nnc2ccc(-c3cccc([N+](=O)[O-])c3)nn12)Nc1cccc(C(F)(F)F)c1`: the IC90 is 3.34 µg/mL (≈ 7.04 µM).

As to `Cc1ccc(C(=O)Nc2sc3c(c2C(N)=O)CCN(C)C3)cc1C`, the IC90 is 18.8 µg/mL (≈ 54.7 µM).

Consider `COc1ccc2c(c1)c(=O)c(C(=O)c1ccc(Cl)cc1)cn2Cc1ccccc1`, for which the 90% effect concentration (IC90) is 6.44 µg/mL (≈ 15.9 µM).

Consider `c1csc(Nc2nc3cc4c(cc3s2)OCO4)n1`, for which the IC90 was 8.57 µg/mL (≈ 30.9 µM).
